Reference: ChEMBL document CHEMBL1126222, “Investigation of conformational specificity at GPIIb/IIIa: evaluation of conformationally constrained RGD peptides” (J Med Chem, 1992)

Key:
[1] = target: T1, Integrin alpha-IIb/beta-3 (Homo sapiens, UniProt P05106+P08514); experiment: Inhibition of [3H]Mba-(N-Me)Arg-Gly-Asp-Man binding to GPIIb/IIIa from human platelets reconstituted in liposomes
[2] = target: T1, Integrin alpha-IIb/beta-3; experiment: Inhibition of [3H]Mba-(N-Me)Arg-Gly-Asp-Man binding to fibrinogen receptor of human platelets reconstituted in liposomes
[3] = target: T1, Integrin alpha-IIb/beta-3; experiment: Inhibition of [3H]Mba-(N-Me)Arg-Gly-Asp-Man binding to Fibrinogen Receptor from human platelets reconstituted in liposomes

T1 sequence (P05106 27-788 limits assumed): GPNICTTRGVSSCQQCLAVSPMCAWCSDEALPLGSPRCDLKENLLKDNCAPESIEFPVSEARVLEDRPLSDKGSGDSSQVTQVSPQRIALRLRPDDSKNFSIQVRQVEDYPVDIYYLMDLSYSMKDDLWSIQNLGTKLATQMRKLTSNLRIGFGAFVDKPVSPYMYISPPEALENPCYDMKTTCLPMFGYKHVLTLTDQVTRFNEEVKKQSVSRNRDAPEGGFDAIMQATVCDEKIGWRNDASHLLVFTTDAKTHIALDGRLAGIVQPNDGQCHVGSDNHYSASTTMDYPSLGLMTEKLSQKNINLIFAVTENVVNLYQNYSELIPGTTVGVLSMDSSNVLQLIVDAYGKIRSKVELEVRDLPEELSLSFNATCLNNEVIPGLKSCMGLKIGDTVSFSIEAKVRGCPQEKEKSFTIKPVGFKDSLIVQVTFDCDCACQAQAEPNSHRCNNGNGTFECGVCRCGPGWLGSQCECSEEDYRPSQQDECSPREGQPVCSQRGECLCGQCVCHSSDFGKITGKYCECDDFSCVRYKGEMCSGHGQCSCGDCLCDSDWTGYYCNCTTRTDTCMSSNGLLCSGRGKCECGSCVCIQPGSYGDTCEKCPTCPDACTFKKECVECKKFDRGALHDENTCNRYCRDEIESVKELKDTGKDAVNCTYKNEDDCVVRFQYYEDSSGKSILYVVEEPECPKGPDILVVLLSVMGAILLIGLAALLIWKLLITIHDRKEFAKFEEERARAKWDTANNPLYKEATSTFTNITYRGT
T1 sequence (P08514 32-887 limits assumed): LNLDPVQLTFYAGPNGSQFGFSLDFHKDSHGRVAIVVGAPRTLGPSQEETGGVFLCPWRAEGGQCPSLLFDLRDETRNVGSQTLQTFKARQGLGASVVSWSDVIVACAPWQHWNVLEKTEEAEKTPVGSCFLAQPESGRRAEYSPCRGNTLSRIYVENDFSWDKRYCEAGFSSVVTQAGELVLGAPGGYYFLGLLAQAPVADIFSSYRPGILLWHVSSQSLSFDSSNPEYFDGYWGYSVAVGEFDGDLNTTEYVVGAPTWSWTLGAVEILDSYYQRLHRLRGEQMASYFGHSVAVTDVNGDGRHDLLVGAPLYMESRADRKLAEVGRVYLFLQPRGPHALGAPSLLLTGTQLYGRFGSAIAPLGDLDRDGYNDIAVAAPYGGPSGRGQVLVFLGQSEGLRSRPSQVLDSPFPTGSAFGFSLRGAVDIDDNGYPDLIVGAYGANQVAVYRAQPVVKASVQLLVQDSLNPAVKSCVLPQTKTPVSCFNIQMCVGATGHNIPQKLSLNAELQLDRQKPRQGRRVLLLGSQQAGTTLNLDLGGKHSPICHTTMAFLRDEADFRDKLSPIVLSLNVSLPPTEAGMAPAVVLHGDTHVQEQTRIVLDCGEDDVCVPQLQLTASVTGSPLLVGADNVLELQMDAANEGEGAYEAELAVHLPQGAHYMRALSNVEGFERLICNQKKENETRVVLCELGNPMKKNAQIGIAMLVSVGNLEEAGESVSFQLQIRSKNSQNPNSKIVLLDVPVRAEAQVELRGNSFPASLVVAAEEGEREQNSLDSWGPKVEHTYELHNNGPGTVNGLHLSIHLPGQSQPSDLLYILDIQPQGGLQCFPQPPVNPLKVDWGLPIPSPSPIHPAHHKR
T1 sequence (P08514 891-1039 limits assumed): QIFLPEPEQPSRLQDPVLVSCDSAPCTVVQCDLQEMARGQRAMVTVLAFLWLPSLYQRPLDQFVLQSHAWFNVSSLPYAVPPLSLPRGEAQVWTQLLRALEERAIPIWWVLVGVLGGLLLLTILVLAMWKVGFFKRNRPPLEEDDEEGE

Row | Structure (SMILES) | Ki [1] [µM] | Ki [2] [µM] | other results
1 | N=C(N)NCCC[C@@H]1NC(=O)[C@@H]2CCCN2C(=O)CNC(=O)[C@H]2CCCN2C(=O)[C@H](CC(=O)O)NC(=O)CNC1=O | > 100 |  | 
2 | CN(C(=O)c1ccccc1S)[C@@H](CCCNC(=N)N)C(=O)NCC(=O)N[C@@H](CC(=O)O)C(=O)Nc1ccccc1S |  | 0.004 | 
3 | CC(=O)N[C@@H](CS)C(=O)N(C)[C@@H](CCCN=C(N)N)C(=O)NCC(=O)N[C@@H](CC(=O)O)C(=O)N[C@H](C(N)=O)C(C)(C)S |  | 0.175 | 
4 | CC(=O)N[C@@H](CS)C(=O)N[C@H](CCCN=C(N)N)C(=O)NCC(=O)N[C@@H](CC(=O)O)C(=O)N[C@H](C(N)=O)C(C)(C)S |  | 3.3 | 
5 | N=C(N)NCCC[C@@H]1NC(=O)[C@@H]2CCCN2C(=O)[C@@H](Cc2ccccc2)NC(=O)CNC(=O)[C@H](CC(=O)O)NC(=O)CNC1=O | 18.5 |  | 
6 | CC(=O)N[C@@H](CS)C(=O)N[C@@H](CCCN=C(N)N)C(=O)NCC(=O)N[C@@H](CC(=O)O)C(=O)NC(C(N)=O)C(C)(C)S (stereo in doubt) |  |  | Ki [3]: 3.13 µM
